In patent publication US20240024488A1, “COMPOUNDS AND USES THEREOF” (Foghorn Therapeutics Inc., priority 2020, published 2024):

Experiments:
[1] = target: T1, HiBit-BRG1 fusion protein (Homo sapiens, UniProt P51532); assay: HiBiT-BRG1 cell-based degradation assay (Nano-Glo HiBiT Lytic Detection, 24 h); details: HeLa cell line expressing HiBit-BRG1 and LgBit; for Dmax: read-out: BRG1 HiBit Degradation Maximum (%); for DC50: read-out: BRMG1 HiBit Degradation IC50
T1 construct: expressed in transfected cells
In short: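 Luminescence from Nano-Glo HiBiT lytic detection, read after 24 h compound exposure, scored degradation in a stable HeLa HiBiT-BRG1/LgBit line seeded at 5000 cells/well. DMSO wells defined 0% and 2 μM known BRM/BRG1 degrader wells defined full degradation.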

HiBit-BRM fusion protein = target: T2, HiBit-BRM fusion protein (Homo sapiens, UniProt P51531); assay: HiBiT-BRM cell-based degradation assay (Nano-Glo HiBiT Lytic Detection, 24 h); details: HeLa cell line expressing HiBiT-BRM; for DC50: read-out: BRM HiBit Degradation IC50
T2 construct: expressed in transfected cells
In short: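 Stable HiBiT-BRM HeLa line; 24 h compound exposure, top final 30 μM, 3-fold, 10 pts in duplicate. Lytic HiBiT/LgBiT luminescence readout. % degradation vs DMSO (0%) and 2 μM known BRM/BRG1 degrader (100%).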

T1 sequence (P51532 whole entry, the tested form may be a part): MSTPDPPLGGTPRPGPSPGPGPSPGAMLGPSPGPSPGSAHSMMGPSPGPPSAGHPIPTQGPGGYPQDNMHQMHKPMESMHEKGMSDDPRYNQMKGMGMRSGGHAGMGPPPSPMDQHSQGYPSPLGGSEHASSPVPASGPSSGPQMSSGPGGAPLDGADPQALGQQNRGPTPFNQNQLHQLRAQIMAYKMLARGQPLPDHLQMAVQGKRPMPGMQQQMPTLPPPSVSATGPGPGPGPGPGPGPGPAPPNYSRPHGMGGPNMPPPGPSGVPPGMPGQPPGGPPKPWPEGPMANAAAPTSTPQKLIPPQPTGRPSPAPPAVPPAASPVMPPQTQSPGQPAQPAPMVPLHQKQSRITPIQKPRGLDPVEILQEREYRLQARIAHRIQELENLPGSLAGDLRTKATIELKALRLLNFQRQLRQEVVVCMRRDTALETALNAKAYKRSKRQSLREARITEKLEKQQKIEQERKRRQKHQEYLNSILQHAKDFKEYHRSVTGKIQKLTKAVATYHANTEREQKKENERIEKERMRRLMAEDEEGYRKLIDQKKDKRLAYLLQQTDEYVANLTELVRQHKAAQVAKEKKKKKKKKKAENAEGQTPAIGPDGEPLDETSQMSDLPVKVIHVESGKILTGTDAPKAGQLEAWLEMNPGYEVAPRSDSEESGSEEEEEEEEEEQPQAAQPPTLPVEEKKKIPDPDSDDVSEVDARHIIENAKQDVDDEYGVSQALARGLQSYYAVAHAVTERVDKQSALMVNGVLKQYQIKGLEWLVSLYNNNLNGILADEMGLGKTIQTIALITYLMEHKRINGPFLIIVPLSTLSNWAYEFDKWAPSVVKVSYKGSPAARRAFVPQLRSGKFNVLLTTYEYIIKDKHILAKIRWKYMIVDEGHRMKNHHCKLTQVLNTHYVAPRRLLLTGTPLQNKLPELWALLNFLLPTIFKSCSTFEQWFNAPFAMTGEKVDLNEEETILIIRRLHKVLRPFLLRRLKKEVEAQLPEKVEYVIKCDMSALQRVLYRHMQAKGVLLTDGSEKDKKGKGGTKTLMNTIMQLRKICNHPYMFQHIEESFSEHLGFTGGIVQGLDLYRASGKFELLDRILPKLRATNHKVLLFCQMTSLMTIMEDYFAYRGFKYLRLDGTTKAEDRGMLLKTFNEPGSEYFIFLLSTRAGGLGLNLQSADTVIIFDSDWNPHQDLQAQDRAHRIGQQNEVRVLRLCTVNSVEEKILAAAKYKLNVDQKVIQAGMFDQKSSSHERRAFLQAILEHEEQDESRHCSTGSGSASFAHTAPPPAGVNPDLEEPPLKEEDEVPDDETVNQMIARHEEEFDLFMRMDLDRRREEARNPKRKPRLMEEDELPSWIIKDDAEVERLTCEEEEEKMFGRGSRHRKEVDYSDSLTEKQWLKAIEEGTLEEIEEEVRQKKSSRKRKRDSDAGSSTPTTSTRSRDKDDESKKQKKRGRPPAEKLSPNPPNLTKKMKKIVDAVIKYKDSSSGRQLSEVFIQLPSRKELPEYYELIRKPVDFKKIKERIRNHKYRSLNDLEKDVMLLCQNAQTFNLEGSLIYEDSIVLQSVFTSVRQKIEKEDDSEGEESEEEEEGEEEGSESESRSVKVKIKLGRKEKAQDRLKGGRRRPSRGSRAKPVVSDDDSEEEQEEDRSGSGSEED
T2 sequence (P51531 whole entry, the tested form may be a part): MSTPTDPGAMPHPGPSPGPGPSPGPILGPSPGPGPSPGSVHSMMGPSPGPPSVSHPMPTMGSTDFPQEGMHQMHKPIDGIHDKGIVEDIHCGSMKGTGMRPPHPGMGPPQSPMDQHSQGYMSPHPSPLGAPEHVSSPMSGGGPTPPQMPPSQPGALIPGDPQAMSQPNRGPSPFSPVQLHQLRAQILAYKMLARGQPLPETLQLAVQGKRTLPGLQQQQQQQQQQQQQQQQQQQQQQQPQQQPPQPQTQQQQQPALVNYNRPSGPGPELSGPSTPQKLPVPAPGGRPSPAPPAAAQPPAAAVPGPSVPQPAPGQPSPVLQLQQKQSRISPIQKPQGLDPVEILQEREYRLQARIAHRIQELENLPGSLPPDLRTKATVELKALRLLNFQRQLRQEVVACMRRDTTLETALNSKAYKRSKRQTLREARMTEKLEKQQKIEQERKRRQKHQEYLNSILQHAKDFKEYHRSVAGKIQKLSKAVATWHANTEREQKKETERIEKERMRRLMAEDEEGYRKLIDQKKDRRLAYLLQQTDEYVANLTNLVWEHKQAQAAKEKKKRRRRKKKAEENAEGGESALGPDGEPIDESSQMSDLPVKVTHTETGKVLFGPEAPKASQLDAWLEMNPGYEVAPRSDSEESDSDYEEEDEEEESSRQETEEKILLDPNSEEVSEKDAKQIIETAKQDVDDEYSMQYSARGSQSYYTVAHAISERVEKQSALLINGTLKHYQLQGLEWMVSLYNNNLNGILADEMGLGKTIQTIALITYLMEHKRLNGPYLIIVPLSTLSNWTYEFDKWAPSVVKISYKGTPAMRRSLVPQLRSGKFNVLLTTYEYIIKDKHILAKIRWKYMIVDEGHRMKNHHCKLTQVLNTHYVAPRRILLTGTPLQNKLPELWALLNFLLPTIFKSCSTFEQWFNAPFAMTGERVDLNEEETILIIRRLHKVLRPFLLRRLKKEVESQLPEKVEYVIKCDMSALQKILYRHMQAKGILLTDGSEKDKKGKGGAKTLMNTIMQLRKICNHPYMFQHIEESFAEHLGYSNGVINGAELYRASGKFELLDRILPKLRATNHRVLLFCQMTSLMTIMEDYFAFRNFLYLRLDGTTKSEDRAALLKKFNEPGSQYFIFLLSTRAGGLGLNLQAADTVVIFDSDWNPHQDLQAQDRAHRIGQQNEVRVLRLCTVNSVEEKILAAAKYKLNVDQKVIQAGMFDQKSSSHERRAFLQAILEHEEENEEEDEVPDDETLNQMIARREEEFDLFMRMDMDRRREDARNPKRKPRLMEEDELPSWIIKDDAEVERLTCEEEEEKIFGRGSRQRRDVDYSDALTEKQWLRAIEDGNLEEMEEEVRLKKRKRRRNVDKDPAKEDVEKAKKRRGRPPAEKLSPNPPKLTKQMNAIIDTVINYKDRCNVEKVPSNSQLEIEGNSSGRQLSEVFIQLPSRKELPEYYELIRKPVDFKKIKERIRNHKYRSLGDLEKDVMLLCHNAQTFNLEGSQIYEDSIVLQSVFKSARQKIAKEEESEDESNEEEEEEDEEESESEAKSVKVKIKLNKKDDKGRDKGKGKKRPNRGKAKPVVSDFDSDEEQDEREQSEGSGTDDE

## Cc1ncsc1-c1ccc([C@H](C)NC(=O)[C@@H]2C[C@@H](O)CN2C(=O)[C@@H](c2cc(OCCN3CC4(CC(c5c[nH]c6nnc(-c7ccccc7O)cc56)C4)C3)no2)C(C)C)cc1 (racemic) [Compound 304, (2S,4R)-4-hydroxy-1-((R)-2-(3-(2-(6-(3-(2-hydroxyphenyl)-7H-pyrrolo[2,3-c]pyridazin-5-yl)-2-azaspiro[3.3]heptan-2-yl)ethoxy)isoxazol-5-yl)-3-methylbutanoyl)-N-((S)-1-(4-(4-methylthiazol-5-yl)phenyl)ethyl)pyrrolidine-2-carboxamide]
[1]
  Dmax: > 75%
  DC50: > 100 nM
HiBit-BRM fusion protein
  BRM HiBit Degradation Maximum (%): A (“A” indicates maximum degradation ≥ 75%)
  DC50: > 10 nM

## O=C1CCC(N2C(=O)c3cccc(OCCCC(=O)N4CC(c5cc6cc(-c7ccccc7O)nnc6[nH]5)C4)c3C2=O)C(=O)N1 (centres unmarked) [Compound 8, 2-(2,6-dioxopiperidin-3-yl)-4-(4-(3-(3-(2-hydroxyphenyl)-7H-pyrrolo[2,3-c]pyridazin-6-yl)azetidin-1-yl)-4-oxobutoxy)isoindoline-1,3-dione]
[1]
  Dmax: > 75%
  DC50: > 1000 nM
HiBit-BRM fusion protein
  BRM HiBit Degradation Maximum (%): A (“A” indicates maximum degradation ≥ 75%)
  DC50: > 1000 nM

## Cc1ncsc1-c1ccc([C@H](C)NC(=O)[C@@H]2C[C@@H](O)CN2C(=O)[C@@H](c2cc(OCCN3CC(C(C)(C)c4cc5cc(-c6ccccc6O)nnc5[nH]4)C3)no2)C(C)C)cc1 (racemic) [Compound 289, (2S,4R)-4-hydroxy-1-((R)-2-(3-(2-(3-(2-(3-(2-hydroxyphenyl)-7H-pyrrolo[2,3-c]pyridazin-6-yl)propan-2-yl)azetidin-1-yl)ethoxy)isoxazol-5-yl)-3-methylbutanoyl)-N-((S)-1-(4-(4-methylthiazol-5-yl)phenyl)ethyl)pyrrolidine-2-carboxamide]
[1]
  Dmax: < 50%
HiBit-BRM fusion protein
  BRM HiBit Degradation Maximum (%): A (“A” indicates maximum degradation ≥ 75%)
  DC50: > 10 nM

## Cc1ncsc1-c1ccc(CNC(=O)[C@@H]2C[C@@H](O)CN2C(=O)[C@@H](NC(=O)CCCCC(=O)N2CC(c3c[nH]c4nnc(-c5ccccc5O)cc34)C2)C(C)(C)C)cc1 [Compound 47, (2S,4R)-4-hydroxy-1-((S)-2-(6-(3-(3-(2-hydroxyphenyl)-7H-pyrrolo[2,3-c]pyridazin-5-yl)azetidin-1-yl)-6-oxohexanamido)-3,3-dimethylbutanoyl)-N-(4-(4-methylthiazol-5-yl)benzyl)pyrrolidine-2-carboxamide]
[1]
  Dmax: < 50%
HiBit-BRM fusion protein
  BRM HiBit Degradation Maximum (%): C (“C” indicates maximum degradation < 50%)

## Cc1ncsc1-c1ccc([C@H](C)NC(=O)[C@@H]2C[C@@H](O)CN2C(=O)[C@@H](c2cc(C3CCN(C(=O)c4cc5cc(-c6ccccc6O)nnc5[nH]4)CC3)no2)C(C)C)cc1 (single isomer, unassigned) [Compound 203]
[1]
  Dmax: < 50%
HiBit-BRM fusion protein
  BRM HiBit Degradation Maximum (%): A (“A” indicates maximum degradation ≥ 75%)
  DC50: > 100 nM

## Cc1ncsc1-c1ccc([C@H](C)NC(=O)[C@@H]2C[C@@H](O)CN2C(=O)[C@H](c2cc(C3CN(C(=O)[C@@H]4CCc5[nH]c6nnc(-c7ccccc7O)cc6c5C4)C3)no2)C(C)C)cc1 (single isomer, unassigned) [Compound 154]
[1]
  Dmax: < 50%
HiBit-BRM fusion protein
  BRM HiBit Degradation Maximum (%): C (“C” indicates maximum degradation < 50%)

## Cc1ncsc1-c1ccc(CNC(=O)[C@@H]2C[C@@H](O)CN2C(=O)[C@@H](NC(=O)CCCCCCCCCC(=O)N2CC(c3cc4cc(-c5ccccc5O)nnc4[nH]3)C2)C(C)(C)C)cc1 [Compound 5, (2S,4R)-4-hydroxy-1-((S)-2-(11-(3-(3-(2-hydroxyphenyl)-7H-pyrrolo[2,3-c]pyridazin-6-yl)azetidin-1-yl)-11-oxoundecanamido)-3,3-dimethylbutanoyl)-N-(4-(4-methylthiazol-5-yl)benzyl)pyrrolidine-2-carboxamide]
[1]
  Dmax: < 50%
HiBit-BRM fusion protein
  BRM HiBit Degradation Maximum (%): A (“A” indicates maximum degradation ≥ 75%)
  DC50: > 100 nM

## Cc1ncsc1-c1ccc([C@H](C)NC(=O)[C@@H]2C[C@@H](O)CN2C(=O)[C@@H](c2cc(C3CCN(C(=O)[C@@]4(N)CCc5[nH]c6nnc(-c7ccccc7O)cc6c5C4)CC3)no2)C(C)C)cc1 (relative stereo) [Compound 103, (2S,4R)-1-[(2R)-2-(3-{1-[(6R*)-6-amino-3-(2-hydroxyphenyl)-5H,7H,8H,9H-pyridazino[3,4-blindole-6-carbonyl]piperidin-4-yl}-1,2-oxazol-5-yl)-3-methylbutanoyl]-4-hydroxy-N-[(1S)-1-[4-(4-methyl-1,3-thiazol-5-yl)phenyl]ethyl]pyrrolidine-2-carboxamide]
[1]
  Dmax: < 50%
HiBit-BRM fusion protein
  BRM HiBit Degradation Maximum (%): B (“B” indicates maximum degradation ≥ 50%)
  DC50: > 100 nM

## Cc1ncsc1-c1ccc([C@H](C)NC(=O)[C@@H]2C[C@@H](O)CN2C(=O)[C@@H](c2cc(OCCNC(=O)CN3CC(c4cc5cc(-c6ccccc6O)nnc5[nH]4)C3)no2)C(C)C)cc1 (racemic) [Compound 249, (2S,4R)-4-hydroxy-1-((R)-2-(3-(2-(2-(3-(3-(2-hydroxyphenyl)-7H-pyrrolo[2,3-c]pyridazin-6-yl)azetidin-1-yl)acetamido)ethoxy)isoxazol-5-yl)-3-methylbutanoyl)-N-((S)-1-(4-(4-methylthiazol-5-yl)phenyl)ethyl)pyrrolidine-2-carboxamide]
[1]
  Dmax: < 50%
HiBit-BRM fusion protein
  BRM HiBit Degradation Maximum (%): A (“A” indicates maximum degradation ≥ 75%)
  DC50: > 100 nM

## Cc1ncsc1-c1ccc([C@H](C)NC(=O)[C@@H]2C[C@@H](O)CN2C(=O)[C@H](c2cc(OCCCN3C[C@@H]4[C@H](C3)[C@H]4c3cc4cc(-c5ccccc5O)nnc4[nH]3)no2)C(C)C)cc1 (racemic) [Compound 215, (2S,4R)-4-hydroxy-1-((S)-2-(3-(3-((1R,5S,6S)-6-(3-(2-hydroxyphenyl)-7H-pyrrolo[2,3-c]pyridazin-6-yl)-3-azabicyclo[3.1.0]hexan-3-yl)propoxy)isoxazol-5-yl)-3-methylbutanoyl)-N-((S)-1-(4-(4-methylthiazol-5-yl)phenyl)ethyl)pyrrolidine-2-carboxamide]
[1]
  Dmax: < 50%
HiBit-BRM fusion protein
  BRM HiBit Degradation Maximum (%): C (“C” indicates maximum degradation < 50%)

## Cc1ncsc1-c1ccc(CNC(=O)[C@@H]2C[C@@H](O)CN2C(=O)[C@@H](NC(=O)CCCCCCCCCCC(=O)N2CC(c3cc4cc(-c5ccccc5O)nnc4[nH]3)C2)C(C)(C)C)cc1 [Compound 4, (2S,4R)-4-hydroxy-1-((S)-2-(12-(3-(3-(2-hydroxyphenyl)-7H-pyrrolo[2,3-c]pyridazin-6-yl)azetidin-1-yl)-12-oxododecanamido)-3,3-dimethylbutanoyl)-N-(4-(4-methylthiazol-5-yl)benzyl)pyrrolidine-2-carboxamide]
[1]
  Dmax: < 50%
HiBit-BRM fusion protein
  BRM HiBit Degradation Maximum (%): A (“A” indicates maximum degradation ≥ 75%)
  DC50: > 100 nM

## Cc1ncsc1-c1ccc(CNC(=O)[C@@H]2C[C@@H](O)CN2C(=O)[C@@H](NC(=O)[C@H]2CC[C@H](c3cnc(N4CCC(c5cc6cc(-c7ccccc7O)nnc6[nH]5)CC4)nc3)CC2)C(C)(C)C)cc1 (racemic) [Compound 93, (2S,4R)-4-hydroxy-1-((S)-2-((1r,4S)-4-(2-(4-(3-(2-hydroxyphenyl)-7H-pyrrolo[2,3-c]pyridazin-6-yl)piperidin-1-yl)pyrimidin-5-yl)cyclohexane-1-carboxamido)-3,3-dimethylbutanoyl)-N-(4-(4-methylthiazol-5-yl)benzyl)pyrrolidine-2-carboxamide]
[1]
  Dmax: > 75%
  DC50: > 100 nM
HiBit-BRM fusion protein
  BRM HiBit Degradation Maximum (%): A (“A” indicates maximum degradation ≥ 75%)
  DC50: > 10 nM

## Cc1ncsc1-c1ccc([C@H](C)NC(=O)[C@@H]2C[C@@H](O)CN2C(=O)C(c2cc(N3CCC(C(=O)N4CC(c5c[nH]c6nnc(-c7ccccc7O)cc56)C4)CC3)no2)C(C)C)cc1 (mixture of isomers) [Compound 231, (2S,4R)-4-hydroxy-1-((S)-2-(3-(4-(3-(3-(2-hydroxyphenyl)-7H-pyrrolo[2,3-c]pyridazin-5-yl)azetidine-1-carbonyl)piperidin-1-yl)isoxazol-5-yl)-3-methylbutanoyl)-N-((S)-1-(4-(4-methylthiazol-5-yl)phenyl)ethyl)pyrrolidine-2-carboxamide]
[1]
  Dmax: < 50%
HiBit-BRM fusion protein
  BRM HiBit Degradation Maximum (%): A (“A” indicates maximum degradation ≥ 75%)
  DC50: > 100 nM

## Cc1ncsc1-c1ccc([C@H](C)NC(=O)[C@@H]2C[C@@H](O)CN2C(=O)[C@@H](c2cc(OCCN(C)CCC(=O)N3CC(c4c[nH]c5nnc(-c6ccccc6O)cc45)C3)no2)C(C)C)cc1 (racemic) [Compound 221, (2S,4R)-4-hydroxy-1-((R)-2-(3-(2-((3-(3-(3-(2-hydroxyphenyl)-7H-pyrrolo[2,3-c]pyridazin-5-yl)azetidin-1-yl)-3-oxopropyl)(methyl)amino)ethoxy)isoxazol-5-yl)-3-methylbutanoyl)-N-((S)-1-(4-(4-methylthiazol-5-yl)phenyl)ethyl)pyrrolidine-2-carboxamide]
[1]
  Dmax: < 50%
HiBit-BRM fusion protein
  BRM HiBit Degradation Maximum (%): B (“B” indicates maximum degradation ≥ 50%)
  DC50: > 100 nM

## Cc1ncsc1-c1ccc([C@H](C)NC(=O)[C@@H]2C[C@@H](O)CN2C(=O)[C@@H](c2cc(CN3CC(c4cc5cc(-c6ccccc6O)nnc5[nH]4)C3)no2)C(C)C)cc1 (single isomer, unassigned) [Compound 137]
[1]
  Dmax: < 50%
HiBit-BRM fusion protein
  BRM HiBit Degradation Maximum (%): A (“A” indicates maximum degradation ≥ 75%)
